Values after ≈ are worked out from the molar mass of the structure shown. Structures can show the parent of a compound that is named as a salt. Where two headings read alike, the source gives them in different places.
Columns and labels:
[1] = test system: clinical sorted MDR-TB P103; assay: microbe, parasite or virus in culture; assay type: cell-based; conditions: Mycobacterium tuberculosis, MDRTBP103
[2] = test system: clinical sorted MDR-TB P91; assay: microbe, parasite or virus in culture; assay type: cell-based; conditions: Mycobacterium tuberculosis, MDRTBP91
[3] = test system: clinical sorted MDR-TB P105; assay: microbe, parasite or virus in culture; assay type: cell-based; conditions: Mycobacterium tuberculosis, MDRTBP105
[4] = in vivo; parameters: species or system SD rats; conditions: rat; for bioavailability / AUC(0-inf) / Cmax / T^1/2 / Tmax: SD
Description: Example 55: Pharmacokinetic Studies of Compounds TJ170298 and TJ170385
1. Administration and Sample Collection a. Rat intravenous administration: SD rats 3, weight 180˜220 g. Fasting 12 h before administration, a small amount of food was allowed during the experiment, and water was free. The compounds TJ170298 and TJ170385 were administered intravenously at a dose of 2 mg/kg. The rats were respectively taken 0.3 mL orbital blood at 2 min, 10 min, 30 min, 1.0 h, 2.0 h, 3.0 h, 4.0 h, 6.0 h, 8.0 h, 12.0 h, 21 h, 24.0 h, 30 h, 36 h, 48 h, 60 h, 72 h after administration, which was then placed in heparinized test tube, centrifuged 10 min at 6000 rpm, and plasma was separated, preserved at 4° C. to be measured. […]
b. Rat oral administration: SD rats 3, weight 180˜220 g. Fasting for 12 h before administration, a small amount of food was allowed during the experiment, and water was free. The compounds TJ170298 and TJ170385 were orally administered at a dose of 10 mg/kg, respectively. The rats were respectively taken 0.3 mL orbital blood at 2 min, 10 min, 30 min, 1.0 h, 2.0 h, 3.0 h, 4.0 h, 6.0 h, 8.0 h, 12.0 h, 21 h, 24.0 h, 30 h, 36 h, 48 h, 60 h, 72 h after administration, which was then placed in heparinized test tube, centrifuged 10 min at 6000 rpm, and plasma was separated, preserved at 4° C. to be measured.
2. Determination of Plasma Samples a. Plasma Sample Treatment
150 μl of the internal standard solution ([…], acetonitrile solution) was added to 50 μL of the above plasma sample, mixed well; after eddy mixing for 2 min, centrifuge for 30 min (13000 rpm, 4° C.), supernatant was taken to another centriguge tube, and 20 μL of which was taken for LC/MS/MS analysis. […]
b. Preparation of Standard Curve
50 μL of rat blank plasma was taken, to which 10 μL of compound standard series solution was added to prepare compound plasma samples equivalent to plasma concentration of 20, 50, 100, 500, 1000, 2000, 4000, 6000, 12000, 40000 ng/mL. According to “plasma sample treatment” item, the standard curve was established. The concentration (X) of an analyte is as the abscissa, the peak area ratio (y) of the analyte and the internal standard is as the ordinate, and the regression is performed by the weighted (W=1/x2) least squares method to obtain the linear regression Equation, that is, the standard curve.
C. Data Processing and Analysis
The pharmacokinetic parameters of rats after administration were calculated by DAS 2.0 software.

[5] = test system: mycobacterium tuberculosis self-luminescent bacteria H37Ra; conditions: for spleen anti-tuberculosis activity compared with the positive control Rifampicin: in vivo
[6] = test system: Mycobacterium tuberculosis standard strain H37Rv; assay: Plate MIC of Example 53, standard strain H37Rv; assay type: cell-based
[7] = test system: self-luminescent tuberculosis; assay: microbe, parasite or virus in culture; assay type: cell-based
[8] = test system: Mycobacterium tuberculosis standard strain H37Rv; assay: MIC of Mycobacterium tuberculosis by a plate method; conditions: 7H11 plates, 37° C. for 4 weeks, colony count
[9] = Mycobacterium tuberculosis, 72 h, read-out: MIClux
[10] = Mycobacterium tuberculosis, 72 h; read-out: MIClux

Work on `CO[C@H]1/C=C/O[C@@]2(C)Oc3c(C)c(O)c4c(O)c(c(/C=N/N5CCN(C)CC5)c(O)c4c3C2=O)NC(=O)/C(C)=C\C=C\[C@H](C)[C@H](O)[C@@H](C)[C@@H](O)[C@@H](C)[C@H](OC(C)=O)[C@@H]1C` [RIF, rifampicin, reference compound] yielded an MIC [1] of over 10 mg/L, an MIC [2] of 1 to 10 mg/L (≈ 1.22 to 12.2 µM) and an MIC [3] of over 10 mg/L.

`CCc1nn2ccc(Cl)cc2c1C(=O)NCc1ccc(N2CCC(c3ccc(OC(F)(F)F)cc3)CC2)cc1` [TJ170298 (hydrochloride), 5-chloro-2-ethyl-N-(4-(4-(4-(trifluoromethoxy)phenyl)piperidine-1-yl)benzyl) pyrazolo [1,5-a]pyridine-3-carboxamide] gave a bioavailability [4] of 24.1%, an AUC(0-inf) ([4]; iv, 2 mg/kg) of 3.9 µg·h/mL and a Cmax ([4]; iv, 2 mg/kg) of 1.55 µg/mL. For the same compound, the “T^1/2” value ([4]; iv, 2 mg/kg) was 19.975 h, the Tmax ([4]; iv, 2 mg/kg) was 0.033 h and the AUC(0-inf) ([4]; po, 10 mg/kg) was 4.7 µg·h/mL. The Cmax ([4]; po, 10 mg/kg) was 0.509 µg/mL, the “T^1/2” value ([4]; po, 10 mg/kg) was 19.699 h and the Tmax ([4]; po, 10 mg/kg) was 2 h.

With `CCc1nn2ccc(Cl)cc2c1C(=O)NCc1ccc(N2CCC(c3ccc(OC(F)(F)F)cc3)CC2)cc1` [TJ170298, 5-chloro-2-ethyl-N-(4-(4-(4-(trifluoromethoxy)phenyl)piperidine-1-yl)benzyl) pyrazolo [1,5-a]pyridine-3-carboxamide] the “pharmacokinetic properties (in words)” value [4] was “good pharmacokinetic properties”, the MIC [1] was under 0.075 mg/L and the MIC [2] was under 0.075 mg/L. The “in vivo anti-tuberculosis activity (luminous values within live mice)” value [5] was “obvious in vivo anti-tuberculosis activity”, the “in vivo anti-tuberculosis activity compared with the positive control Rifampicin” value [5] was “equal to or better than that of the positive control Rifampicin” and the “spleen anti-tuberculosis activity compared with the positive control Rifampicin” value [5] was “bad than that of the positive control Rifampicin”. The MIC [3] was 0.15 mg/L (≈ 0.269 µM), the MIC [6] was 0.012 mg/L and the MIC [7, 9] was under 1 mg/L.

With `CCc1nn2ccc(Cl)cc2c1C(=O)NCc1ccc(C(F)(F)F)cc1` [TJ170322] the MIC [8] was 0.1 mg/L and the MIC [7, 10] was under 1 mg/L.

In the case of `Cc1nn2ccc(Cl)cc2c1C(=O)NCc1ccc(N2CCC(c3ccc(OC(F)(F)F)cc3)CC2)cc1` [TJ170372, 5-chloro-2-methyl-N-(4-(4-(4-(trifluoromethoxy)phenyl)piperidine-1-yl)benzyl) pyrazolo [1,5-a] pyridine-3-carboxamide], the “in vivo anti-tuberculosis activity (luminous values within live mice)” value [5] is reported as “obvious in vivo anti-tuberculosis activity”, the “in vivo anti-tuberculosis activity compared with the positive control Rifampicin” value [5] is reported as “equal to or better than that of the positive control Rifampicin” and the “spleen anti-tuberculosis activity compared with the positive control Rifampicin” value [5] is reported as “bad than that of the positive control Rifampicin”. For the same compound, the MIC [8] was 0.01 mg/L and the MIC [7, 10] was under 1 mg/L.

`O=C(NCc1ccc(N2CCC(c3ccc(OC(F)(F)F)cc3)CC2)cc1)c1c(C2CC2)nn2ccc(Cl)cc12` [TJ170375, 5-chloro-2-cyclopropyl-N-(4-(4-(4-(trifluoromethoxy)phenyl)piperidine-1-substituted)benzyl) pyrazolo [1,5-a] pyridine-3-carboxamide] showed an MIC [8] of 0.1 mg/L and an MIC [7, 10] of under 1 mg/L.

With `Cc1nn2ccccc2c1C(=O)NCc1ccc(N2CCC(c3ccc(OC(F)(F)F)cc3)CC2)cc1` [TJ170381, 2-methyl-N-(4-(4-(4-(trifluoromethoxy)phenyl)piperidine-1-yl)benzyl) pyrazolo [1,5-a] pyridine-3-carboxamide] the MIC [8] was 0.1 mg/L and the MIC [7, 9] was under 1 mg/L.

Compound `Cc1ccn2nc(C)c(C(=O)NCc3ccc(N4CCC(c5ccc(OC(F)(F)F)cc5)CC4)cc3)c2c1` [TJ170385, 2,5-dimethyl-N-(4-(4-(4-(trifluoromethoxy)phenyl)piperidine-1-yl)benzyl) pyrazolo [1,5-a] pyridine-3-carboxamide] has a bioavailability [4] of 94.5%, an AUC(0-inf) ([4]; iv, 2 mg/kg) of 2.03 µg·h/mL and a Cmax ([4]; iv, 2 mg/kg) of 1.04 µg/mL. The “T^1/2” value ([4]; iv, 2 mg/kg) was 10.933 h, the AUC(0-inf) ([4]; po, 10 mg/kg) was 9.59 µg·h/mL and the Cmax ([4]; po, 10 mg/kg) was 0.644 µg/mL. For the same compound, the “T^1/2” value ([4]; po, 10 mg/kg) was 27.374 h, the Tmax ([4]; po, 10 mg/kg) was 2 h and the “pharmacokinetic properties (in words)” value [4] was “good pharmacokinetic properties”. For the same compound, the “in vivo anti-tuberculosis activity (luminous values within live mice)” value [5] was “obvious in vivo anti-tuberculosis activity”, the “in vivo anti-tuberculosis activity compared with the positive control Rifampicin” value [5] was “equal to or better than that of the positive control Rifampicin” and the “spleen anti-tuberculosis activity compared with the positive control Rifampicin” value [5] was “bad than that of the positive control Rifampicin”. It also gave an MIC [8] of 0.01 mg/L and an MIC [7, 9] of under 1 mg/L.

`Cc1ccn2nc(C)c(C(=O)NCc3cnc(-c4ccc(OC(F)(F)F)cc4)nc3)c2c1` [TJ830150, 2,5-Dimethyl-N-((2-(4-(trifluoromethoxy)phenyl)pyrimidine-5-yl)methyl) pyrazolo [1,5-a] pyridine-3-carboxamide] gave an MIC [7, 10] of under 1 mg/L.

Work on `Cc1ccn2nc(C)c(C(=O)NCc3ccc(-c4ccc(OC(F)(F)F)cc4)cc3)c2c1` [TJ830151, 2,5-dimethyl-N-((4′-(trifluoromethoxy)-[1,1′-biphenyl]-4-yl)methyl) pyrazolo [1,5-a] pyridine-3-carboxamide] yielded an MIC [7, 10] of under 1 mg/L.

With `Cc1ccn2nc(C)c(C(=O)NCc3ccc(N4CCN(c5ccc(F)cc5)CC4)cc3)c2c1` [TJ830152, N-(4-(4-(4-fluorophenyl)piperazine-1-yl)benzyl)-2,5-dimethyl-pyrazolo [1,5-a] pyridine-3-carboxamide] the MIC [7, 10] was under 1 mg/L.

In the case of `Cc1ccn2nc(C)c(C(=O)NCc3ccc(Oc4ccc(OC(F)(F)F)cc4)cc3)c2c1` [TJ830153], the MIC [7, 10] is reported as under 1 mg/L.

In the case of `Cc1ccn2nc(C)c(C(=O)NCc3ccc(N4CCC(Oc5ccc(OC(F)(F)F)cc5)CC4)cc3)c2c1` [TJ830161, 2,5-dimethyl-N-(4-(4-(4-(trifluoromethoxy)phenoxy)piperidine-1-yl)benzyl) pyrazolo [1,5-a] pyridine-3-carboxamide], the MIC [7, 10] is reported as under 1 mg/L.

With `CCc1nn2ccc(Cl)cc2c1C(=O)NCc1ccc(F)cc1` [TJ4570004, 5-chloro-2-ethyl-N-(4-fluorobenzyl) pyrazolo [1,5-a] pyridine-3-carboxamide] the MIC [7, 10] was over 10 mg/L.

`Cc1ccn2nc(C)c(C(=O)NCc3ccc(F)cc3)c2c1` [TJ4570006, N-(4-fluorobenzyl)-2,5-dimethylpyrazolo [1,5-a] pyridine-3-carboxamide] gave an MIC [7, 10] of 1 to 10 mg/L (≈ 3.36 to 33.6 µM).

With `NNC(=O)c1ccncc1` [isoniazid, reference compound] the MIC [8] was “<=0.1 μg/mL”.

From patent US10155756B2, “Pyrazolo[1,5-A]pyridine compounds and use thereof” (GUANGZHOU INSTITUTES OF BIOMEDICINE AND HEALTH, CHINESE …, priority 2014, dated 2018)
